For one assay, the target named is EGFR Del19/T790M/C797S (Homo sapiens, UniProt P00533, C797S/DEL746-750/T790M). In words: Biochemical EGFR kinase inhibition assay (Lance Ultra TR-FRET), triple mutant del19/T790M/C797S. The method in brief: (§1)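 In this biochemical assay, phosphorylation after a one-hour room-temperature reaction was detected with europium-labelled anti-phosphopeptide antibody at 2 nM final concentration.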

The next assay concerns the target EGFR Del19/C797S (Homo sapiens, UniProt P00533, C797S/DEL746-750). Put plainly: Biochemical EGFR kinase inhibition assay (Lance Ultra TR-FRET), double mutant del19/C797S. The method in brief: as §1
The next assay has as its target EGFR wildtype (WT) (Homo sapiens, UniProt P00533). Put plainly: Biochemical EGFR kinase inhibition assay (Lance Ultra TR-FRET), wildtype. The method in brief: as §1
For orientation: In TR-FRET formats the signal depends on donor and acceptor labels being close together.

In another assay the target is EGFR L858R/C797S (Homo sapiens, UniProt P00533, C797S/L858R). Put plainly: Biochemical EGFR kinase inhibition assay (Lance Ultra TR-FRET), double mutant L858R/C797S. The method in brief:
as §1

The target of a further assay is EGFR L858R/T790M/C797S (Homo sapiens, UniProt P00533, C797S/L858R/T790M). Put plainly: Biochemical EGFR kinase inhibition assay (Lance Ultra TR-FRET), triple mutant L858R/T790M/C797S. The essentials: as §1
Where [1] appears, read: IC50 Del19/T790M/C797S (nM), 100 μM ATP.
Setting [2] is: Km ATP, read-out: IC50 Del19/T790M/C797S (nM) Km ATP.
[3] abbreviates: IC50 Del19/C797S (nM), 100 μM ATP.
[4] abbreviates: Km ATP, read-out: IC50 Del19/C797S (nM) Km ATP.
The mark [5] stands for this setting: Km ATP, read-out: IC50 WT (nM) Km ATP.
[6] abbreviates: IC50 L858R/C797S (nM), 100 μM ATP.
The mark [7] stands for this setting: Km ATP, read-out: IC50 L858R/C797S (nM) Km ATP.
Where [8] appears, read: IC50 L858R/T790M/C797S (nM), 100 μM ATP.
The mark [9] stands for this setting: Km ATP, read-out: IC50 L858R/T790M/C797S (nM) Km ATP.
The mark [10] stands for this setting: Km ATP, read-out: IC50 Del19/T790M/C797S (nM), Km ATP.
The mark [11] stands for this setting: Km ATP, read-out: IC50 Del19/C797S (nM), Km ATP.
Setting [12] is: Km ATP, read-out: IC50 WT (nM), Km ATP.
Where [13] appears, read: Km ATP, read-out: IC50 L858R/C797S (nM), Km ATP.
Where [14] appears, read: Km ATP, read-out: IC50 L858R/T790M/C797S (nM), Km ATP.

Each structure is given as a SMILES string. Read-outs that look alike come from different tables or passages of the source.

Sequence of EGFR Del19/T790M/C797S (P00533 with tags, fused parts or gaps DEL746-750/T790M/C797S): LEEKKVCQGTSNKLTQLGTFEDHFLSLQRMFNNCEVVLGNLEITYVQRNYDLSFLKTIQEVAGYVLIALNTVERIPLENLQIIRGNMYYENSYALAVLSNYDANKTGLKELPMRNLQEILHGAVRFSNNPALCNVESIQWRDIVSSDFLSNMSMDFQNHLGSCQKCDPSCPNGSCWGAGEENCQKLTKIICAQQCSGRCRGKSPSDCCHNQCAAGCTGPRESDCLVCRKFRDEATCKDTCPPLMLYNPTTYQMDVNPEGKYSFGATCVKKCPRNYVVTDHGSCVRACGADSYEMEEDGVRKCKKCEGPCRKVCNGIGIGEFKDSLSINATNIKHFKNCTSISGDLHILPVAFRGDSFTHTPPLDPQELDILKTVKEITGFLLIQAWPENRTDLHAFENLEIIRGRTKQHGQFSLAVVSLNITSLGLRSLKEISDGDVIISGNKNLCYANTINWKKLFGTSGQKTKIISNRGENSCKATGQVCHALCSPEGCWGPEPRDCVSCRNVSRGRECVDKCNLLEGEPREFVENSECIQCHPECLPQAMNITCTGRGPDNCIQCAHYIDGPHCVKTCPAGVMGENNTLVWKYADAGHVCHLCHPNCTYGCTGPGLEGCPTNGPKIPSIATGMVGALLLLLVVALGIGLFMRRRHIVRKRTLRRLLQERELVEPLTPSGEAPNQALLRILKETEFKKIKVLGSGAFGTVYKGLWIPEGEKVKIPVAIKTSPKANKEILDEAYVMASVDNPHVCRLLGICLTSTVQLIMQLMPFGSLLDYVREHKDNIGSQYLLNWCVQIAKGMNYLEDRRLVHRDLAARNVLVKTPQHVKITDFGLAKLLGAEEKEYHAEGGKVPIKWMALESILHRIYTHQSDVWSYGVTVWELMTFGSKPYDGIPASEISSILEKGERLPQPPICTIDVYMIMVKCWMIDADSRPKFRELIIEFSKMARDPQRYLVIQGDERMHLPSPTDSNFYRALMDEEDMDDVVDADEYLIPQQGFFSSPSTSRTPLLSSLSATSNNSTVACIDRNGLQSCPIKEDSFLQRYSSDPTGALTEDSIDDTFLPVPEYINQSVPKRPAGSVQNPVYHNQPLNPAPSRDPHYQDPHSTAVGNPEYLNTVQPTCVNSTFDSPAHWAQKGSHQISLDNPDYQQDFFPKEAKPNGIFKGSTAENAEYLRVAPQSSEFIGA
Sequence of EGFR wildtype (WT) (P00533 25-1210): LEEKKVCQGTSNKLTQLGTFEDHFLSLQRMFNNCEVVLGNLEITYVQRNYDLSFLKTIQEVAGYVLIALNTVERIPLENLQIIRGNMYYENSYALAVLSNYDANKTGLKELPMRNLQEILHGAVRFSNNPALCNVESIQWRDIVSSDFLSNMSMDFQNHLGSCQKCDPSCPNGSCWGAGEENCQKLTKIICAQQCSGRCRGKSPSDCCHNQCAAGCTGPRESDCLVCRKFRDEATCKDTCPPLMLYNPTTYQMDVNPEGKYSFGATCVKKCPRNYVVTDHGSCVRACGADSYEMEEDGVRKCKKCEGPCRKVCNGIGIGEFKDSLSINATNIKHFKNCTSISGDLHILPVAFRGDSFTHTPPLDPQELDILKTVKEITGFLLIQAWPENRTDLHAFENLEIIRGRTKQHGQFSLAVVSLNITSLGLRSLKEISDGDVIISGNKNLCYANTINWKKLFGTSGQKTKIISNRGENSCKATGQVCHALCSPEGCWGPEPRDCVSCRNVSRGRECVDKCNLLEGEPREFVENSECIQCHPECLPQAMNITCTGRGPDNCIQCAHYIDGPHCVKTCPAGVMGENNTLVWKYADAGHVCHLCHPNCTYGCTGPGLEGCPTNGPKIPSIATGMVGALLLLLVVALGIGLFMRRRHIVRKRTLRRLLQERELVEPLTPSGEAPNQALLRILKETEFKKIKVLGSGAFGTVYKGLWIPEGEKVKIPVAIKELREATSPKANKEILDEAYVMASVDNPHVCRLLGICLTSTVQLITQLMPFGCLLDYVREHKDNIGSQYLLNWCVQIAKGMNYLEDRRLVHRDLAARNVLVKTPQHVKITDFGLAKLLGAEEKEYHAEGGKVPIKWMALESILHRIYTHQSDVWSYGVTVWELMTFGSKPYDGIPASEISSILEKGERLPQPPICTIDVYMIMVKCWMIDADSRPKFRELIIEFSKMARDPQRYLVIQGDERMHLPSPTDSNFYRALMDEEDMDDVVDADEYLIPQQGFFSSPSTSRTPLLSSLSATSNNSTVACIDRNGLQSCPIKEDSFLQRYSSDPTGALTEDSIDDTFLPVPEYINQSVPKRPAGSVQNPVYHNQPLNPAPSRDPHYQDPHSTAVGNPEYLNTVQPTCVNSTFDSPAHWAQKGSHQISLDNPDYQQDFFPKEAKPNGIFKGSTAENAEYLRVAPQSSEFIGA
Sequence of EGFR Del19/C797S (P00533 with tags, fused parts or gaps DEL746-750/C797S): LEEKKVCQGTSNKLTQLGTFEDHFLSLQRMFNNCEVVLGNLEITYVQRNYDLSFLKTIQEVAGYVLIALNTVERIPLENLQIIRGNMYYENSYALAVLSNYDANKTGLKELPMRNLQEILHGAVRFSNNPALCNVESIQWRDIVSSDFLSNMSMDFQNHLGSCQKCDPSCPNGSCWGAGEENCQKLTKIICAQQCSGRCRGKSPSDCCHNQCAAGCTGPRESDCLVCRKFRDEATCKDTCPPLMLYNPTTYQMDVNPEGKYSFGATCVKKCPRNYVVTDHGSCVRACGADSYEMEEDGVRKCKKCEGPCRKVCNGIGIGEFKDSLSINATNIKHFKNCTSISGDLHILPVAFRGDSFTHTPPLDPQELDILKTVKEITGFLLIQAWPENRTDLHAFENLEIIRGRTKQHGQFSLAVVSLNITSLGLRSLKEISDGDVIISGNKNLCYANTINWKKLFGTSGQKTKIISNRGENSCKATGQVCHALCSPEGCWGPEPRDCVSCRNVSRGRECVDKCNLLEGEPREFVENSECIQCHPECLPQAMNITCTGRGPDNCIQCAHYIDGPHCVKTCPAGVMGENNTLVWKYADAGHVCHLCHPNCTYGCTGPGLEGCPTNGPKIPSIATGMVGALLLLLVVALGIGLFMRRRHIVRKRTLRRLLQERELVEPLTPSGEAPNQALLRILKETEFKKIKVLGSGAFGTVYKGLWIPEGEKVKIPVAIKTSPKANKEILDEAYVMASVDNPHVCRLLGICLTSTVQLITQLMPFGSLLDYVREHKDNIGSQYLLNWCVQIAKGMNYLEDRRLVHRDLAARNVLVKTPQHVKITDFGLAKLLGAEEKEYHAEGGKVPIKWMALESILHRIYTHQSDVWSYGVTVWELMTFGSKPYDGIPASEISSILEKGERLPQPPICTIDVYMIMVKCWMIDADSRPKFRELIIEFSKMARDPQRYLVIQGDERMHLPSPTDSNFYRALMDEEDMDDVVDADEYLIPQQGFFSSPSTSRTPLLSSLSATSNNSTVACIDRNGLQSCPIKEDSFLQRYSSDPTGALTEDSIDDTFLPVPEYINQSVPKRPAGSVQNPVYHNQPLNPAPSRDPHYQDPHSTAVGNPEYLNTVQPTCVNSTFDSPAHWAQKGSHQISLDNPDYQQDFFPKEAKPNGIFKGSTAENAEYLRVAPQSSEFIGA
Sequence of EGFR L858R/C797S (P00533 25-1210 C797S/L858R): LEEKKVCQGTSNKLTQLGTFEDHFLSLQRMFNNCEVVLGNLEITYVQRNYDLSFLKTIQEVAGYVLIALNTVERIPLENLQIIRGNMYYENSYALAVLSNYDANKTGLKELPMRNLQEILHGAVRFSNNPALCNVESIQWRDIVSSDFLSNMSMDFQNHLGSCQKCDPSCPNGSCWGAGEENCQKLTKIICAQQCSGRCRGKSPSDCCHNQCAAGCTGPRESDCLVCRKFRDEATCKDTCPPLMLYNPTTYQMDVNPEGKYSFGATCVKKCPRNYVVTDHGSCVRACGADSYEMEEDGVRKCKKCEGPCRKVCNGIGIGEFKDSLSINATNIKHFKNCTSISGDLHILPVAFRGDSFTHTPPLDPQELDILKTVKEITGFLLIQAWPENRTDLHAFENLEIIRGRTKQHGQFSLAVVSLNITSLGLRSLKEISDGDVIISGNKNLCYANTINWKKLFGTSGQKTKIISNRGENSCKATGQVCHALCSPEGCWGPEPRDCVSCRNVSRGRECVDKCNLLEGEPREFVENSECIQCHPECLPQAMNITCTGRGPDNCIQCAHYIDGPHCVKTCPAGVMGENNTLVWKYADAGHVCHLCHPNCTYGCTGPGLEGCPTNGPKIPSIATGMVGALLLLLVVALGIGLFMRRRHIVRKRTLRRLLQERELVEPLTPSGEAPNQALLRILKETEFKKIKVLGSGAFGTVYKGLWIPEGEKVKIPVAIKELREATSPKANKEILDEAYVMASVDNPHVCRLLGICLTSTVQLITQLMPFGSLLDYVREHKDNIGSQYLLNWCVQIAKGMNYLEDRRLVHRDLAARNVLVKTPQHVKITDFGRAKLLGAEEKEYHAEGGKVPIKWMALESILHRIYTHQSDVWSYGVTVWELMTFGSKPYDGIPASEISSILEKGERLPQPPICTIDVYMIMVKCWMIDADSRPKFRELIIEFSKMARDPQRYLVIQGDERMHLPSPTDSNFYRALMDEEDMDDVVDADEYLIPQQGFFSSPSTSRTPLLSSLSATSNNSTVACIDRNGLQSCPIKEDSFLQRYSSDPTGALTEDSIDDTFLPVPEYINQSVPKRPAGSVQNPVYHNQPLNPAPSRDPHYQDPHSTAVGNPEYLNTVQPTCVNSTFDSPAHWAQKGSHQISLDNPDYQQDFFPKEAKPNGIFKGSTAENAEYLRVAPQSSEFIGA

Take `CN(C)CCNC1CCN(c2cc(Nc3ccnc(-c4cnn(S(=O)(=O)C5CC5)c4)n3)ncc2C#Cc2ccn(C)n2)CC1` [Example 142, N^1-(1-(2-((2-(1-(Cyclopropylsulfonyl)-1H-pyrazol-4-yl)pyrimidin-4-yl)amino)-5-((1-methyl-1H-pyrazol-3-yl)ethynyl)pyridin-4-yl)piperidin-4-yl)-N^2,N^2-dimethylethane-1,2-diamine]: the IC50 was 0.4 nM at EGFR Del19/T790M/C797S (setting [1]); 0.4 nM at EGFR Del19/T790M/C797S (setting [2]); 8.4 nM against EGFR Del19/C797S (setting [3]); 5.9 nM at EGFR Del19/C797S (setting [4]); > 10000 nM at EGFR wildtype (WT) (IC50 WT (nM), 100 μM ATP); 31.3 nM on EGFR wildtype (WT) (setting [5]). The IC50 was 176 nM against EGFR L858R/C797S (setting [6]), 3.9 nM at EGFR L858R/C797S (setting [7]), 0.9 nM against EGFR L858R/T790M/C797S (setting [8]) and 0.2 nM at EGFR L858R/T790M/C797S (setting [9]).
Consider `O=C1CCN(c2cc(Nc3ccnc(-c4cnn(S(=O)(=O)C5CC5)c4)n3)ncc2C#Cc2cnn(C3CCOCC3)c2)CC1` [Example 93, 1-(2-((2-(1-(Cyclopropylsulfonyl)-1H-pyrazol-4-yl)pyrimidin-4-yl)amino)-5-((1-(tetrahydro-2H-pyran-4-yl)-1H-pyrazol-4-yl)ethynyl)pyridin-4-yl)piperidin-4-one], for which the IC50 on EGFR Del19/T790M/C797S (setting [1]) is 2.2 nM; at EGFR Del19/T790M/C797S (setting [2]), 1.9 nM; against EGFR Del19/C797S (setting [3]) it was 64.8 nM; at EGFR Del19/C797S (setting [4]), 43 nM; on EGFR wildtype (WT) (IC50 WT (nM), 100 μM ATP), > 10000 nM; on EGFR wildtype (WT) (setting [5]), 260 nM. In addition, the IC50 against EGFR L858R/C797S (setting [6]) amounted to 372 nM; at EGFR L858R/C797S (setting [7]), 18.3 nM; at EGFR L858R/T790M/C797S (setting [8]), 18.2 nM; on EGFR L858R/T790M/C797S (setting [9]), 2.5 nM.
For `O=S(=O)(C1CC1)n1cc(-c2nccc(Nc3cc(N4CCC[C@H](O)C4)c(C#Cc4cnn(C(F)(F)F)c4)cn3)n2)cn1` [Example 439, (S)-1-(2-((2-(1-(Cyclopropylsulfonyl)-1H-pyrazol-4-yl)pyrimidin-4-yl)amino)-5-((1-(trifluoromethyl)-1H-pyrazol-4-yl)ethynyl)pyridin-4-yl)piperidin-3-ol], the IC50 was 1.7 nM at EGFR Del19/T790M/C797S (setting [1]); 2.1 nM at EGFR Del19/T790M/C797S (setting [10]); 24.5 nM against EGFR Del19/C797S (setting [3]); 12.5 nM at EGFR Del19/C797S (setting [11]); > 10000 nM against EGFR wildtype (WT) (IC50 WT (nM), 100 μM ATP); 122 nM on EGFR wildtype (WT) (setting [12]). Moreover, the IC50 against EGFR L858R/C797S (setting [6]) came out at 62.7 nM; at EGFR L858R/C797S (setting [13]), 11.1 nM; against EGFR L858R/T790M/C797S (setting [8]) it was 3.7 nM; on EGFR L858R/T790M/C797S (setting [14]), 1.3 nM.
For the molecule `O=S(=O)(C1CC1)N1CCC(C#Cc2cnc(Nc3ccnc(-c4cnn(S(=O)(=O)C5CC5)c4)n3)cc2N[C@H]2CC[C@@H](O)CC2)CC1` [Example 391, (1s,4s)-4-((2-((2-(1-(Cyclopropylsulfonyl)-1H-pyrazol-4-yl)pyrimidin-4-yl)amino)-5-((1-(cyclopropylsulfonyl)piperidin-4-yl)ethynyl)pyridin-4-yl)amino)cyclohexan-1-ol], the IC50 against EGFR Del19/T790M/C797S (setting [1]) was 1.3 nM; at EGFR Del19/T790M/C797S (setting [10]) it was 0.6 nM; on EGFR Del19/C797S (setting [3]) it was 5.1 nM; on EGFR Del19/C797S (setting [11]), 3 nM; against EGFR wildtype (WT) (IC50 WT (nM), 100 μM ATP), > 10000 nM; at EGFR wildtype (WT) (setting [12]), 25.6 nM. Moreover, the IC50 at EGFR L858R/C797S (setting [6]) came out at 63.4 nM; at EGFR L858R/C797S (setting [13]), 19.2 nM; on EGFR L858R/T790M/C797S (setting [8]) it was 2.1 nM; at EGFR L858R/T790M/C797S (setting [14]), 0.4 nM.
For `CN(C)C[C@H]1CC[C@@H](Nc2cc(Nc3ccnc(-c4cnn(S(=O)(=O)C5CC5)c4)n3)ncc2C#Cc2cnn(CC(F)F)c2)CC1` [Example 311, N^2-(2-(1-(Cyclopropylsulfonyl)-1H-pyrazol-4-yl)pyrimidin-4-yl)-5-((1-(2,2-difluoroethyl)-1H-pyrazol-4-yl)ethynyl)-N^4-((1s,4s)-4-((dimethylamino)methyl)cyclohexyl)pyridine-2,4-diamine], the IC50 turned out to be 0.5 nM on EGFR Del19/T790M/C797S (setting [1]); 1.6 nM on EGFR Del19/C797S (ATP at Km, read-out: IC50 Del19/C797S (nM), Km ATP); 1.8 nM against EGFR Del19/C797S (setting [3]); 17.5 nM at EGFR wildtype (WT) (ATP at Km, read-out: IC50 WT (nM), Km ATP); 8550 nM on EGFR wildtype (WT) (IC50 WT (nM), 100 μM ATP); 0.7 nM on EGFR L858R/C797S (ATP at Km, read-out: IC50 L858R/C797S (nM), Km ATP). In addition, the results for the IC50 against EGFR L858R/C797S (setting [6]) and against EGFR L858R/T790M/C797S (setting [8]) were 26 nM and 0.7 nM, respectively.
